# Molecular target: T1, ALK (baculovirus expressed human ALK kinase domain F1098-K1410) (Homo sapiens, UniProt Q9UM73)
# T1 construct: human ALK kinase domain F1098-K1410; made in house
# Test: biochemical
# Conditions: 1 μM ATP, 4 μM poly-AEKY, 12 nM ALK, 2 hours at ambient temperature; read-out: ALK IC50
# In short: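 Baculovirus-expressed human ALK kinase domain (F1098-K1410) was run in a luciferase-coupled chemiluminescent format, with ATP near its KM. After 2 h at ambient temperature, remaining ATP was read by luciferase-luciferin luminescence. IC50 came from 10-point dose-response curves fitted to a four-parameter equation with Hill slope.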
# T1 sequence (Q9UM73 1098-1410): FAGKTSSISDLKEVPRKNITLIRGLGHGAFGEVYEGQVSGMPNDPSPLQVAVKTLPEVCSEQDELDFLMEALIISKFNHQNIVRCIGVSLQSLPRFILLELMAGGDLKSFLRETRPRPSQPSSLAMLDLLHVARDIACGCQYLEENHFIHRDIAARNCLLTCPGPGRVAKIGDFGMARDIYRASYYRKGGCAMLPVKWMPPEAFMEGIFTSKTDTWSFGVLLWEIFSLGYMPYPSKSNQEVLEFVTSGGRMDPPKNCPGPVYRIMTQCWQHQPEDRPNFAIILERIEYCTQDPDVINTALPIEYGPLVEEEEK
row,Structure (SMILES),IC50
1,"O=C(COc1ccc(OC(F)(F)F)cc1)NCc1nc(C(=O)NCCc2ccccc2)cs1 [Entry 145, N-(2-phenylethyl)-2-({[({4-[(trifluoromethyl)oxy]phenyl}oxy)acetyl]amino}methyl)-1,3-thiazole-4-carboxamide]",0.05 to 0.5 µM
2,"O=C(COc1ccc(OC(F)(F)F)cc1)NCc1nc(C(=O)NCc2ccc(F)c(F)c2)cs1 [Entry 185, N-[(3,4-difluorophenyl)methyl]-2-({[({4-[(trifluoromethyl)oxy]phenyl}oxy)acetyl]amino}methyl)-1,3-thiazole-4-carboxamide]",0.05 to 0.5 µM
3,"O=C(COc1ccc(OC(F)(F)F)cc1)NCc1nc(C(=O)NC2CCc3ccccc32)cs1 (stereo not drawn) [Entry 182, N-(2,3-dihydro-1H-inden-1-yl)-2-({[({4-[(trifluoromethyl)oxy]phenyl}oxy)acetyl]amino}methyl)-1,3-thiazole-4-carboxamide]",0.05 to 0.5 µM
4,"O=C(COc1ccc(OC(F)(F)F)cc1)NCc1nc(C(=O)NCc2cccc(F)c2F)cs1 [Entry 116, N-[(2,3-difluorophenyl)methyl]-2-({[({4-[(trifluoromethyl)oxy]phenyl}oxy)acetyl]amino}methyl)-1,3-thiazole-4-carboxamide]",0.05 to 0.5 µM
5,"O=C(COc1ccc(OC(F)(F)F)cc1)NCc1nc(C(=O)NCCSCc2c(Cl)cccc2Cl)cs1 [Entry 93, N-(2-{[(2,6-dichlorophenyl)methyl]thio}ethyl)-2-({[({4-[(trifluoromethyl)oxy]phenyl}oxy)acetyl]amino}methyl)-1,3-thiazole-4-carboxamide]",0.05 to 0.5 µM
6,"CCN1CCCC1CNC(=O)c1csc(CNC(=O)COc2ccc(OC(F)(F)F)cc2)n1 (stereo not drawn) [Entry 275, N-[(1-ethylpyrrolidin-2-yl)methyl]-2-({[({4-[(trifluoromethyl)oxy]phenyl}oxy)acetyl]amino}methyl)-1,3-thiazole-4-carboxamide]",0.5 to 2 µM
7,"NC(=O)C1CCN(C(=O)c2csc(CNC(=O)COc3ccc(OC(F)(F)F)cc3)n2)CC1 [Entry 272, 1-{[2-({[({4-[(trifluoromethyl)oxy]phenyl}oxy)acetyl]amino}methyl)-1,3-thiazol-4-yl]carbonyl}piperidine-4-carboxamide]",0.5 to 2 µM
8,"O=C(COc1ccc(I)cc1)NCc1nc(C(=O)NCCc2ccccc2F)cs1 [Entry 59, N-[2-(2-fluorophenyl)ethyl]-2-[({[(4-iodophenyl)oxy]acetyl}amino)methyl]-1,3-thiazole-4-carboxamide]",0.05 to 0.5 µM
9,"O=C(COc1ccc(OC(F)(F)F)cc1)NCc1nc(C(=O)NCc2cc(Cl)cc(Cl)c2)cs1 [Entry 69, N-[(3,5-dichlorophenyl)methyl]-2-({[({4-[(trifluoromethyl)oxy]phenyl}oxy)acetyl]amino}methyl)-1,3-thiazole-4-carboxamide]",0.05 to 0.5 µM
10,"CC1CN(C(=O)c2csc(CNC(=O)COc3ccc(OC(F)(F)F)cc3)n2)CCN1c1ccccc1 (stereo not drawn) [Entry 253, N-({4-[(3-methyl-4-phenylpiperazin-1-yl)carbonyl]-1,3-thiazol-2-yl}methyl)-2-({4-[(trifluoromethyl)oxy]phenyl}oxy)acetamide]",0.5 to 2 µM
11,"COc1cccc(CCNC(=O)c2csc(CNC(=O)COc3ccc(OC(F)(F)F)cc3)n2)c1 [Entry 40, N-{2-[3-(methyloxy)phenyl]ethyl}-2-({[({4-[(trifluoromethyl)oxy]phenyl}oxy)acetyl]amino}methyl)-1,3-thiazole-4-carboxamide]",0.05 to 0.5 µM
12,"O=C(COc1ccc(OC(F)(F)F)cc1)NCc1nc(C(=O)NC2CCCCC2)cs1 [Entry 209, N-cyclohexyl-2-({[({4-[(trifluoromethyl)oxy]phenyl}oxy)acetyl]amino}methyl)-1,3-thiazole-4-carboxamide]",0.05 to 0.5 µM
13,"O=C(COc1ccc(OC(F)(F)F)cc1)NCc1nc(C(=O)Nc2ccc(C(=O)O)c(O)c2)cs1 [Entry 142, 2-hydroxy-4-({[2-({[({4-[(trifluoromethyl)oxy]phenyl}oxy)acetyl]amino}methyl)-1,3-thiazol-4-yl]carbonyl}amino)benzoic acid]",0.05 to 0.5 µM
14,"COc1cccc(CCNC(=O)c2csc(CNC(=O)COc3ccc(OC(F)(F)F)cc3)n2)c1OC [Entry 53, N-{2-[2,3-bis(methyloxy)phenyl]ethyl}-2-({[({4-[(trifluoromethyl)oxy]phenyl}oxy)acetyl]amino}methyl)-1,3-thiazole-4-carboxamide]",0.05 to 0.5 µM
15,"O=C(COc1ccc(OC(F)(F)F)cc1)NCc1nc(C(=O)NCc2ccccc2C(F)(F)F)cs1 [Entry 63, 2-({[({4-[(trifluoromethyl)oxy]phenyl}oxy)acetyl]amino}methyl)-N-{[2-(trifluoromethyl)phenyl]methyl}-1,3-thiazole-4-carboxamide]",0.05 to 0.5 µM
16,"CN(CCCNC(=O)c1csc(CNC(=O)COc2ccc(OC(F)(F)F)cc2)n1)c1ccccc1 [Entry 107, N-{3-[methyl(phenyl)amino]propyl}-2-({[({4-[(trifluoromethyl)oxy]phenyl}oxy)acetyl]amino}methyl)-1,3-thiazole-4-carboxamide]",0.05 to 0.5 µM
17,"COc1ccc(OC)c(CNC(=O)c2csc(CNC(=O)COc3ccc(OC(F)(F)F)cc3)n2)c1 [Entry 112, N-{[2,5-bis(methyloxy)phenyl]methyl}-2-({[({4-[(trifluoromethyl)oxy]phenyl}oxy)acetyl]amino}methyl)-1,3-thiazole-4-carboxamide]",0.05 to 0.5 µM
18,"O=C(COc1ccc(OC(F)(F)F)cc1)NCc1nc(C(=O)NCc2ccc(F)c(C(F)(F)F)c2)cs1 [Entry 174, N-{[4-fluoro-3-(trifluoromethyl)phenyl]methyl}-2-({[({4-[(trifluoromethyl)oxy]phenyl}oxy)acetyl]amino}methyl)-1,3-thiazole-4-carboxamide]",0.05 to 0.5 µM
19,"CC(C)[C@H](C)NC(=O)c1csc(CNC(=O)COc2ccc(OC(F)(F)F)cc2)n1 [Entry 153, N-[(1S)-1,2-dimethylpropyl]-2-({[({4-[(trifluoromethyl)oxy]phenyl}oxy)acetyl]amino}methyl)-1,3-thiazole-4-carboxamide]",0.05 to 0.5 µM
20,"O=C(COc1ccc(OC(F)(F)F)cc1)NCc1nc(C(=O)NCCc2ccc(Cl)cc2Cl)cs1 [Entry 160, N-[2-(2,4-dichlorophenyl)ethyl]-2-({[({4-[(trifluoromethyl)oxy]phenyl}oxy)acetyl]amino}methyl)-1,3-thiazole-4-carboxamide]",0.05 to 0.5 µM
21,"COc1cccc(CNC(=O)c2csc(CN)n2)c1OC [Entry 303, 2-(aminomethyl)-N-{[2,3-bis(methyloxy)phenyl]methyl}-1,3-thiazole-4-carboxamide]",> 2 µM
22,"O=C(COc1ccc(OC(F)(F)F)cc1)NCc1nc(C(=O)N2CCc3ccccc3C2)cs1 [Entry 139, N-{[4-(3,4-dihydroisoquinolin-2(1H)-ylcarbonyl)-1,3-thiazol-2-yl]methyl}-2-({4-[(trifluoromethyl)oxy]phenyl}oxy)acetamide]",0.05 to 0.5 µM
23,"O=C(COc1ccc(OC(F)(F)F)cc1)NC(Cc1ccccc1)c1nc(C(=O)NCCc2cccc(Cl)c2)cs1 (stereo not drawn) [Entry 131, N-[2-(3-chlorophenyl)ethyl]-2-(2-phenyl-1-{[({4-[(trifluoromethyl)oxy]phenyl}oxy)acetyl]amino}ethyl)-1,3-thiazole-4-carboxamide]",0.05 to 0.5 µM
24,"CCN(CC)C1CCN(C(=O)c2csc(CNC(=O)COc3ccc(OC(F)(F)F)cc3)n2)C1 (stereo not drawn) [Entry 311, N-[(4-{[3-(diethylamino)pyrrolidin-1-yl]carbonyl}-1,3-thiazol-2-yl)methyl]-2-({4-[(trifluoromethyl)oxy]phenyl}oxy)acetamide]",> 2 µM
